Data set [1] concerns the target purified tubulin and MAP2 (Homo sapiens, UniProt P11137). The data set is described as follows: MAP2-induced polymerization of microtubules in vitro (optical density at 345 nm). It is filed as biochemical. The method, then: Purified MAP2 and tubulin are mixed in the presence of GTP at 4° C. in a spectrophotometer cuvette. Polymerization is induced by heating at 37° C. and is followed by the increase in optical density (OD) which indicates the quantity of polymers formed.
This in vitro test measures the effect of molecules on the MAP2-induced polymerization of microtubules. This polymerization occurs when MAP2 proteins and tubulin are mixed at adequate concentrations in the presence of GTP. It is accompanied by an increase in optical density measured at 345 nm for 15 to 30 minutes with a UNICON spectrophotometer thermostated at 37° C. (FIG. 1).
Activity is measured by the increase in optical density at 345 nm of a mixture of purified tubulin and MAP2, incubated at 37° C. in the presence of GTP.

In the next data set the test system is PC12 cells. As to the kind of experiment: Neuritic growth / sprouting of PC12 cells in the presence of NGF. The settings on record: increasing concentrations, 2, 5 and 8 days of culture, NGF 10 ng/ml. It counts as cell-based, rat. As for the experimental part: Each molecule was tested in three culture wells. Measurements were taken for 200 cells per well using Scion Image software.
Neurite (neurite) length was measured for 200 cells per well after 2, 5, and 8 days of culture.
To rest the effect of selected molecules on neuritic growth, we first used the PC12 line, which has long been employed in neurobiological research. In the presence of NOF (nerve growth factor), the cells of this line, which arise from a rat pheochromocytoma, form neuritic extensions containing MAP-associated microtubules.
Stimulation of neuritic sprouting is conducted on PC12 cells differentiated in the presence of NGF (10 ng/ml) and the steroid being tested (30 μM) for 3 days. For each condition, the average length of the longest 200 neurites in each cell is measured simultaneously for 3 cultures.

The next data set has as its system PC12 cell line. The data set is described as follows: Cellular toxicity on the PC12 cell line. It is filed as cell-based, rat. The settings on record: concentrations as high as solubility limits. The method, then: Cellular toxicity tests are carried out routinely on the PC12 cell line.
Data set [2] in a line: In vivo toxicity, daily injection for one month. Also noted: species or system rat. The settings on record: rats, 48 mg/kg daily injection for one month.
Data set [3] deals with transgenic mice expressing the longest isoform of human tau protein. The data set is described as follows: RotaRod motor incoordination in transgenic tau mice. As to conditions: subcutaneous implant releasing 0.38 mg per day for 90 days. It counts as in vivo, mouse. The text has this:
FIG. 8: Effect of molecule 43B on the motor incoordination of transgenic mice expressing the longest isoform of human tau protein in their neurons. […] The maximum speed of rotation of the RotaRod drum before the […] falls is a measurement of motor coordination (higher values correspond to a better treatment effect).
In order to evaluate the therapeutic potential of 433 to treat Alzheimer-type neurodegenerative diseases, a homozygous transgenic line of mice, such as described by Götz (EMBO J. 1995; 14(7):1304-13), can be used.
These mice express the longest human tau protein isoform. They present symptoms of neurological dysfunction expressed as muscular weakness and a reduction in motor coordination which correlate histologically with the appearance of abnormal neurites and hyperphosphorylated tau proteins as is seen in Alzheimer's disease. This pathological phosphorylation decreases the affinity of tau for microtubules and favors its aggregation.
A breeding program was undertaken at Bicêtre and genotyping made it possible to select mice homozygous for the transgene. […] The implants released 0.38 mg of steroid per day for 90 days. The progression of motor incoordination was followed by repeated RotaRod tests.
(In general: The rotarod test checks motor coordination on a turning rod.)

The next data set relates to CCI traumatized animals. The data set is described as follows: Water Exploration Test (WET) after Controlled Cortical Impact (CCI). The settings on record: Day 27; 20 mg/kg (CCI-D2). It counts as in vivo, rat. Further details: key to Entry number in CZ, Conclusion vs. CCI-D0: ↓: decrease of analyzed variable with p < 0.05; ?: stability of analyzed variable; ↑↑: increase in analyzed variable with p < 0.01. The method, then:
(§1) CCI was performed with an electromagnetic impact device as described (MyNeurolab, St. Louis, Mo.; Brody et al, 2007). Anesthesized rats were subjected to a single right lateral CCI, with the following parameters impact centered 4.0 mm anterior to lambda and 4.5 mm […] of midline, within the craniotomy of the animal. The impact was set at a velocity of 4 m/s with a sustained depression of 200 ms, using a 5.0 mm tip.
The less anxious is a rat, the more time it will, spend “floating” (null velocity) in the central zone (see Fares-2009).
More precisely, a circular tank (180 cm diameter, 60 cm high) is filled with water maintained at 27° C. to a depth of 40 cm. The water is made opaque by adding black gouache, allowing the VideoTrack system (ViewPoint) to detect the white-coloured rat. This tank is divided into 4 identical quadrants (6,358 cm2 each) using two 180 cm long opaque plastic separators. In each quadrant, one rat is introduced with its head facing the corner between the separator and the tank's wall. It is noteworthy to emphasize that 4 rats can be tested simultaneously using the 4 quadrants. […] Thus, the distance, the number of entries, the time spent, and the velocity profile in the CZ are measured to assess anxiety-like behaviour. […]
The effect of 3-methoxy-PREG (MAP4343) on anxiety induced by trauma was analyzed using the WET test.

The subject of a further data set is PSD95. The data set is described as follows: Western blot of PSD95 in cortex and hippocampus after CCI. It counts as in vivo, rat. As to conditions: day 35, 20 mg/kg, first injection 2 h post-trauma, ipsilateral injured cortex and hippocampus, contralateral cortex. The method, then:
as §1
(§2) Samples were analyzed by Western-blot at day 35 post-trauma (D35) to evaluate the effects of MAP4343 on: MAP2 (the target of MAP4343 and a modulator of microtubule function), the post-synaptic markers PSD95 and spinophilin, the pre-synaptic marker synaptophysin, and the axonal growth/integrity marker […].
(§3) Western blot was performed on cortex and hippocampus of TBI-injured animals receiving the first injection of MAP4343 (at 10 mg/kg or 20 mg/kg) or vehicle (sesame oil) 2 h after injury.
(§4) The expression level of various neuronal brain markers of plasticity was measured at day 35 post-trauma by western-blots in the cortex and hippocampus of left uninjured and right injured cerebral hemispheres of CCI traumatized animals receiving either vehicle (sesame oil, CCI-D0) or 3-methoxy-PREG (MAP4343) at 10 mg/kg (CCI-D1) or 20 mg/kg (CCI-D2), with first MAP4343 injection 2 h post-trauma.
On the technique in general: A western blot detects proteins with antibodies after separation by electrophoresis.

The next data set has as its system spinophilin. The data set is described as follows: Western blot of spinophilin in cortex and hippocampus after CCI. It is filed as in vivo, rat. The settings on record: day 35, 10 mg/kg or 20 mg/kg, first injection 2 h post-trauma, injured cortex and hippocampus and contralaterally. As for the experimental part:
as §1, §2, §3, §4

The subject of a further data set is Synaptophysin. The data set is described as follows: Western blot of synaptophysin in cortex and hippocampus after CCI. It is filed as in vivo, rat. The settings on record: day 35, 20 mg/kg, first injection 2 h post-trauma, injured hippocampus. As for the experimental part:
as §1, §2, §3, §4

Setting [4] is: 40 μM, compared to solvent alone.

Chain of purified tubulin and MAP2 (P11137 whole entry): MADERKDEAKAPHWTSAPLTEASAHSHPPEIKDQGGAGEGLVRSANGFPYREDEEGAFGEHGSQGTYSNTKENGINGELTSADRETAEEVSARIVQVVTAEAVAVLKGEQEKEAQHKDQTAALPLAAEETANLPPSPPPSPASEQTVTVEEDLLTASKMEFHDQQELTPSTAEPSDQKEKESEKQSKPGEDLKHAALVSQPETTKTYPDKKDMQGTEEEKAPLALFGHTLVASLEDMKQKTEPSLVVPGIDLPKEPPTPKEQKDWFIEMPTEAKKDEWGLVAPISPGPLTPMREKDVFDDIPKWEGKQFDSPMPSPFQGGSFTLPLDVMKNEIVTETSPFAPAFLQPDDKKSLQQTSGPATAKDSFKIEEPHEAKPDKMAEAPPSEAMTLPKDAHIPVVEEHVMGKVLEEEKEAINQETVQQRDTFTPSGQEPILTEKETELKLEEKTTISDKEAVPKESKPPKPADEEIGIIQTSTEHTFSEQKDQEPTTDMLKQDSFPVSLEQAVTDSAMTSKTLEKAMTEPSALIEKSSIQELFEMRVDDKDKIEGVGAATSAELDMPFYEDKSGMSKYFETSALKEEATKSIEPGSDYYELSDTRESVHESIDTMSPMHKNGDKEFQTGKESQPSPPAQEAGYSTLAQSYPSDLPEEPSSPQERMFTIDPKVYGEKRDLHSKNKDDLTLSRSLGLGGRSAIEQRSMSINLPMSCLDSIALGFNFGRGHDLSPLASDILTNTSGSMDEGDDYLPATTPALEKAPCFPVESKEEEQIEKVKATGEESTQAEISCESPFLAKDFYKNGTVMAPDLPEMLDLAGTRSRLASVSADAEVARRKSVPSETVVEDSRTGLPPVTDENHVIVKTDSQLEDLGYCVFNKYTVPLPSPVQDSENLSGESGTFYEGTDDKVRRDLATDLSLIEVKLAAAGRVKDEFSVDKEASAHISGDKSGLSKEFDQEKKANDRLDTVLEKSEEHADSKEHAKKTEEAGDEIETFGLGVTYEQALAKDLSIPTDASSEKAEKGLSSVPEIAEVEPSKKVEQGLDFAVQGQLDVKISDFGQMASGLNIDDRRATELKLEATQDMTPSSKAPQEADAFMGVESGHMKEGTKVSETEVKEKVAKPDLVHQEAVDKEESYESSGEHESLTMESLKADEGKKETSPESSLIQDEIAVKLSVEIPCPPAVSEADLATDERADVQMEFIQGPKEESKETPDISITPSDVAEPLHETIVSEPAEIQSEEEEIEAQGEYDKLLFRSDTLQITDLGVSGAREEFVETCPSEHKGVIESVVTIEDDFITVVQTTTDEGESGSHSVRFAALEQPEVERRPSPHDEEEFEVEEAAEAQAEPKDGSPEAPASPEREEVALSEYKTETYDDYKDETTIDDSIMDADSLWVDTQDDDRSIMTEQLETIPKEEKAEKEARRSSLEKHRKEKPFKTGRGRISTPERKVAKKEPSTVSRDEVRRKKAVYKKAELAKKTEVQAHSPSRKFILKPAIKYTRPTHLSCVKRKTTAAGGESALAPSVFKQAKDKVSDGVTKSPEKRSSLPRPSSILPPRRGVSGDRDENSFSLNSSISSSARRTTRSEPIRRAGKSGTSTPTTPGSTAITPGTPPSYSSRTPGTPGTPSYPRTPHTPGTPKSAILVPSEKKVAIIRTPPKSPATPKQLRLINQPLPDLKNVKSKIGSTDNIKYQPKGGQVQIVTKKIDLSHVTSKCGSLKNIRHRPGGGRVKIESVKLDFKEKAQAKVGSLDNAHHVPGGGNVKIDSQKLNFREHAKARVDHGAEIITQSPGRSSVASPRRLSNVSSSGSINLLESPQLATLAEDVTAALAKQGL

Consider `CO[C@H]1CC[C@@]2(C)C(=CC[C@H]3[C@@H]4CC[C@H](C(C)=O)[C@@]4(C)CC[C@@H]32)C1` [3-methoxy-PREG, 3β-methoxy-pregna-5-ene-20-one], for which the microtubule polymerization result in data set [1] is “activates microtubule polymerization”. Further, in data set [1] (setting [4]), the “Lag time of microtubule polymerization” value is on record as “decreased”; the “polymerization rate and quantity of microtubules” value is on record as “clearly increase”. Besides, in the data set on PC12 cells, the “increase in the length of neurites” value was no more than 500%. For the same compound, the cellular toxicity entry with PC12 cell line is reported as “do not demonstrate toxicity”. For the same compound, in [2], the “average weight and behavior” value is on record as “affected neither average weight nor behavior”. Also, the “motor dysfunction (RotaRod)” value in data set [3] is “beneficial effect on motor dysfunction”. Further, in the data set with CCI traumatized animals, the “Entry number in CZ, Conclusion vs. CCI-D0” value was “↑↑” and the “Time spent in CZ, Conclusion vs. CCI-D0” value is recorded as “↑”. Besides, the PSD95 expression entry in the data set with PSD95 is listed as “increase in PSD95 expression”. In addition, the spinophilin expression entry in the data set on spinophilin is given as “increase in spinophilin expression”. Also, the Synaptophysin expression entry in the data set with Synaptophysin is “increase in Synaptophysin expression in injured hippocampus”.

The values are drawn from patent publication US9339508B2, “Use of 3-methoxy-pregnenolone for the preparation of a drug for treating a traumatic brain injury” (MAPREG, priority 2003, dated 2016).
